# According to patent US10118935B2, “Melampomagnolide B dimers” (priority 2014, dated 2018):
# Like-named read-outs stand apart in the source and are kept apart here.
# How the values were obtained:
# [1] = test system: SK-OV-3; test: NCI 60 cell line five dose, Ovarian Cancer
# [2] = test system: SNB-75; test: NCI 60 cell line five dose, CNS Cancer
# [3] = test system: HL-60(TB)
# [4] = test system: RXF 393; test: NCI 60 cell line five dose, Renal Cancer
# [5] = test system: M9ENL AML cell lines; conditions: read-out: LC50; M9ENL AML cell lines; after 24 hours of drug exposure
# [6] = test system: SK-MEL-28; test: NCI 60 cell line five dose, Melanoma
# [7] = test system: MDA-MB-231/ATCC; test: NCI 60 cell line five dose, Breast Cancer
# [8] = test system: NCI/ADR-RES; test: NCI 60 cell line five dose, Ovarian Cancer; conditions: NCI/ADR-
# [9] = test system: DU-145; test: NCI 60 cell line five dose, Prostate Cancer
# [10] = test system: SN12C; test: NCI 60 cell line five dose, Renal Cancer
# [11] = test system: SF-295; test: NCI 60 cell line five dose, CNS Cancer
# [12] = test system: SW-620; test: NCI 60 cell line five dose, Colon Cancer
# [13] = test system: NCI-H522; test: NCI 60 cell line five dose, Non-Small Cell Lung Cancer
structure (smiles),measurement,setting,value
"C=C1C(=O)O[C@H]2[C@H]1CC/C(COC(=O)NCCCCCCCCNC(=O)OC/C1=C/CC[C@@]3(C)O[C@H]3[C@H]3OC(=O)C(=C)[C@@H]3CC1)=C\CC[C@@]1(C)O[C@@H]21 [JVM 3-62, bis(((1aR,7aS, 10aS, 10bS, E)-1a-Methyl-8-methylene-9-oxo-1a,2,3,6,7,7a,8,9,10a,10b-decahydrooxireno[2′,3′:9,10]cyclodeca[1,2-b]furan-5-yl)methyl)octane-1,8-diyldicarbamate]",Percent Growth,[1]; Log10 Concentration −7.0,108%
same,Percent Growth,[1]; Log10 Concentration −8.0,108%
same,GI50,[1]; molar,3640 nM
same,Percent Growth,[2]; Log10 Concentration −4.0,−100%
same,Percent Growth,[2]; Log10 Concentration −5.0,−51%
same,Percent Growth,[2]; Log10 Concentration −6.0,61%
same,Percent Growth,[2]; Log10 Concentration −7.0,78%
same,Percent Growth,[2]; Log10 Concentration −8.0,72%
same,GI50,[2]; molar,1250 nM
same,CC50,"[2]; read-out: LC50, molar",9840 nM
same,Percent Growth,[3]; Log10 Concentration −4.0,−39%
same,Percent Growth,[3]; Log10 Concentration −5.0,−37%
same,Percent Growth,[3]; Log10 Concentration −6.0,−6%
same,Percent Growth,[3]; Log10 Concentration −7.0,92%
same,Percent Growth,[3]; Log10 Concentration −8.0,103%
same,GI50,[3]; molar,268 nM
same,CC50,"[3]; read-out: LC50, molar",> 100000 nM
same,Percent Growth,[4]; Log10 Concentration −4.0,−76%
same,Percent Growth,[4]; Log10 Concentration −5.0,−92%
same,Percent Growth,[4]; Log10 Concentration −6.0,−82%
same,Percent Growth,[4]; Log10 Concentration −7.0,85%
same,Percent Growth,[4]; Log10 Concentration −8.0,96%
same,GI50,[4]; molar,162 nM
same,TGI,[4]; molar,3.22E−7
same,CC50,"[4]; read-out: LC50, molar",640 nM
same,CC50,[5],1000 nM
same,Percent Growth,[6]; Log10 Concentration −4.0,−71%
same,Percent Growth,[6]; Log10 Concentration −5.0,−77%
same,Percent Growth,[6]; Log10 Concentration −6.0,−37%
same,Percent Growth,[6]; Log10 Concentration −7.0,90%
same,Percent Growth,[6]; Log10 Concentration −8.0,92%
same,GI50,[6]; molar,205 nM
same,TGI,[6]; molar,5.11E−7
same,CC50,"[6]; read-out: LC50, molar",2120 nM
same,Percent Growth,[7]; Log10 Concentration −4.0,−80%
same,Percent Growth,[7]; Log10 Concentration −5.0,−78%
same,Percent Growth,[7]; Log10 Concentration −6.0,−47%
same,Percent Growth,[7]; Log10 Concentration −7.0,92%
same,Percent Growth,[7]; Log10 Concentration −8.0,99%
same,GI50,[7]; molar,200 nM
same,TGI,[7]; molar,4.58E−7
same,CC50,"[7]; read-out: LC50, molar",1240 nM
same,Percent Growth,[8]; Log10 Concentration −4.0,−57%
same,Percent Growth,[8]; Log10 Concentration −5.0,21%
same,Percent Growth,[8]; Log10 Concentration −6.0,92%
same,Percent Growth,[8]; Log10 Concentration −7.0,111%
same,Percent Growth,[8]; Log10 Concentration −8.0,103%
same,GI50,[8]; molar,3910 nM
same,TGI,[8]; molar,1.87E−5
same,CC50,"[8]; read-out: LC50, molar",82000 nM
same,Percent Growth,[9]; Log10 Concentration −4.0,−100%
same,Percent Growth,[9]; Log10 Concentration −5.0,−99%
same,Percent Growth,[9]; Log10 Concentration −6.0,56%
same,Percent Growth,[9]; Log10 Concentration −7.0,105%
same,Percent Growth,[9]; Log10 Concentration −8.0,103%
same,GI50,[9]; molar,1100 nM
same,TGI,[9]; molar,2.30E−6
same,CC50,"[9]; read-out: LC50, molar",4810 nM
same,Percent Growth,[10]; Log10 Concentration −4.0,−59%
same,Percent Growth,[10]; Log10 Concentration −5.0,−65%
same,Percent Growth,[10]; Log10 Concentration −6.0,−7%
same,Percent Growth,[10]; Log10 Concentration −7.0,91%
same,Percent Growth,[10]; Log10 Concentration −8.0,100%
same,GI50,[10]; molar,264 nM
same,CC50,"[10]; read-out: LC50, molar",5490 nM
same,Percent Growth,[11]; Log10 Concentration −4.0,−87%
same,Percent Growth,[11]; Log10 Concentration −5.0,−40%
same,Percent Growth,[11]; Log10 Concentration −6.0,87%
same,Percent Growth,[11]; Log10 Concentration −7.0,92%
same,Percent Growth,[11]; Log10 Concentration −8.0,85%
same,GI50,[11]; molar,1950 nM
same,TGI,[11]; molar,4.82E−6
same,CC50,"[11]; read-out: LC50, molar",16200 nM
same,Percent Growth,[12]; Log10 Concentration −4.0,−77%
same,Percent Growth,[12]; Log10 Concentration −5.0,−79%
same,Percent Growth,[12]; Log10 Concentration −6.0,−18%
same,Percent Growth,[12]; Log10 Concentration −7.0,91%
same,Percent Growth,[12]; Log10 Concentration −8.0,91%
same,GI50,[12]; molar,239 nM
same,TGI,[12]; molar,6.86E−7
same,CC50,"[12]; read-out: LC50, molar",3370 nM
same,Percent Growth,[13]; Log10 Concentration −4.0,−66%
same,Percent Growth,[13]; Log10 Concentration −5.0,−75%
same,Percent Growth,[13]; Log10 Concentration −6.0,−57%
same,Percent Growth,[13]; Log10 Concentration −7.0,89%
same,Percent Growth,[13]; Log10 Concentration −8.0,86%
same,GI50,[13]; molar,186 nM
same,TGI,[13]; molar,4.07E−7
same,CC50,"[13]; read-out: LC50, molar",893 nM
